We go through one compound from US7608640B2, “Glycine betaine and its use” (priority 2001, dated 2009).

Series [1] concerns venous thrombosis induced by stasis (lower vena cava ligature). In words: Stasis-induced venous thrombosis, clot weight. The class given is in vivo, rat. As for the experimental part: B/Stasis-induced Thrombosis A laparotomy was performed to open the lower vena cava, on which a ligature was placed at T0, followed by subcutaneous injection of glycine betaine at T0+2 hours, followed by withdrawal of the clot and blood samples at T0+6 hours. Male Wistar rats were used for these tests. They weighed between 200 and 250 grams. After an 8-day stabilisation period, the rats were subjected to fasting for 12 hours. They were then anaesthetised, glycine betaine was administered subcutaneously, and the mesentery (laser) or vena cava (stasis) was opened at the end of the experiments.

Series [2] deals with intrinsic coagulation pathway. In words: Activated coagulation time (kaolin). The class given is in vivo, rat. The text has this:
Activated Coagulation Time (Kaolin)
This test explores the intrinsic coagulation pathway. […] These tubes contain the kaolin activator. (Method HaemoTec., automated coagulation timer manufactured by MEDTRONIC HAEMOTEC Inc., Englewood, Colo., USA).

Series [3] relates to platelet aggregation induced with ADP. Nature of the series: Aggregation induced with ADP. Type of series: in vivo, rat. To be noted: ADP 5 μM. As for the experimental part:
The aggregation is made in accordance to the methods of Cardinal & Flower. Pharmacol. Method. 1980, and to American Journal of Clinical Pathology, 1989; 92: 676-679, Sureney. J D. Whole Blood aggregometry. After a keeping period of 8 days, the rats are subjected to a fasting for 12 hours. Betaine is subcutaneously injected one hour before blood sampling. The rats are then anaesthetised with sodium Thiopental administered at a dose of 200 mg/Kg and the blood samples are taken by intracardiac puncture on a trisodium citrate solution (1 volume of solution at 3.8% citrate for 9 volumes of blood).
• This example evaluated aggregation induced with ADP. • Final ADP concentration 5 μM

For series [4] the following is noted: value taken for the deconvolution technique; cited from earlier work.

Consider `C[N+](C)(C)CC(=O)O` [Glycine betaine], for which the Clot weight in series [1] (1 mg/kg s.c.) stood at 3.1 ± 0.4 mg; in series [1] (2.5 mg/kg s.c.), 1.63 ± 0.76 mg; in series [1] (5 mg/kg s.c.), 0.76 ± 0.4 mg. For the same compound, the “Activated coagulation time” value is 128 s in series [2] (10 mg/kg subcutaneous); 71 ± 3.51 s in series [2] (10 mg/kg subcutaneous, after 24 hours); 154.66 ± 11.01 s in series [2] (20 mg/kg subcutaneous, after 24 hours); 179 s in series [2] (30 mg/kg subcutaneous); 215 s in series [2] (50 mg/kg subcutaneous); 96 ± 11.27 s in series [2] (oral 50 mg/kg, 1 hour). Further, the Activated coagulation time in series [2] (oral 50 mg/kg, 6 hours) was 124.66 ± 9.29 s; in series [2] (oral 50 mg/kg, 24 hours), 64.66 ± 7.37 s; in series [2] (oral 50 mg/kg, 48 hours), 55.66 ± 7.02 s. Further, in series [2] (50 mg/kg subcutaneous), the “Activated coagulation time relative to control” value is on record as “four times higher”. In addition, the Amplitude is 13 +/− 0.82 ohms in series [3] (2.5 mg/kg), 7.25 +/− 0.96 ohms in series [3] (5 mg/kg) and 0 +/− 0 ohms in series [3] (10 mg/kg). The Velocity is listed as 5.75 +/− 0.96 ohm/minute in series [3] (2.5 mg/kg), 4.75 +/− 0.5 ohm/minute in series [3] (5 mg/kg) and 0 +/− 0 ohm/minute in series [3] (10 mg/kg). Also, in series [4], the Elimination half life was 7.8 h.
